Data from doi:10.1101/2023.07.11.548539v1, “A side-by-side comparison of peptide-delivered antisense antibiotics employing different nucleotide mimics” (bioRxiv, 2023).

System: outer membrane of Salmonella
Test: Outer membrane permeabilization (NPN fluorescence)
Format: cell-based, Salmonella enterica serovar Typhimurium strain SL1344
Details: test compounds 10 µM final, added at 14 min; NPN 10 µM; 5 mM HEPES, 5 mM glucose pH 7.2; CTAB and Polymyxin B positive controls
Procedure: The experiments were performed by modifying previously published protocols ([48]–[50]). Salmonella (WT SL1344, JVS-1574) were grown overnight in 4 ml MHB medium at 37 °C (with shaking at 220 rpm). Then the culture was diluted 1:100 and grown until OD 0.5 (∼2×10^8 cfu/mL). This culture was harvested and washed two times with 5mM HEPES and further diluted to OD 0.2 in 5 mM HEPES supplemented with 5 mM Glucose (pH 7.2). These cells were then incubated with N-phenylnaphthylamine (NPN) (Sigma, USA) at a final concentration of 10 µM. 190 µl of NPN treated cells were transferred into 96-well back plates with transparent bottom and fluorescence (excitation = 350 nm, emission = 420 nm) was recorded for 60 min (reading was performed every minute) using a Synergy H1 plate reader (Biotek). On the fourteenth minute, 10 µl of the test compounds (10 µM final concentration) was added into the wells. CTAB (Sigma, USA) 200 µM or Polymyxin B (Sigma, USA) 10 µg/ml (final concentration of 0.5 µg/ml) were used as positive controls, while water was used as negative control. The fluorescence of the wells were monitored using the same settings as above. The experiment was performed three times and Figure 10 is based on a single representative experiment.

Compound	Outer membrane permeabilization, NPN fluorescence (in words)
CCCCCCCCCCCCCCCC[N+](C)(C)C.[Br-] [CTAB, reference compound]	rapid increase in florescence
Polymyxin B [reference compound]	rapid increase in florescence
